Results published in patent US10851083B2, “Benzoimidazoles as prolyl hydroxylase inhibitors” (Janssen Pharmaceutica NV, priority 2008, dated 2020).

Experiments:
Hep-3B cells = assay: Cellular assay: EPO secretion in Hep-3B cells; assay type: cell-based, human; design: EPO secretion, % of control compound: dose or concentration left out as unconfirmed; details: Homo sapiens, Hep3B, 24 h, EPO secretion as percentage of control compound 7-[(4-Chloro-phenyl)-(5-methyl-isoxazol-3-ylamino)-methyl]-quinolin-8-ol, read-out: Cellular % EPO Stimulation
human PHD2181-417 = human PHD2181-417 (Homo sapiens (Human), UniProt Q9GZT9); assay: PHD2 enzyme activity assay ([14C]-succinic acid production); assay type: biochemical; details: PHD2181-417 polypeptide, HIF-1α peptide 10 μM, [5-14C]-2-oxoglutaric acid; 30 min pre-incubation; tested 10 μM to 3 nM;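 further: reaction ran 10 min with compound in Tris pH 7.5 buffer with catalase, DTT and ascorbate, labelled succinate freed of leftover 2-oxoglutarate by DNP precipitation, then beta counted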
human PHD2181-417, sequence (Q9GZT9 181-417): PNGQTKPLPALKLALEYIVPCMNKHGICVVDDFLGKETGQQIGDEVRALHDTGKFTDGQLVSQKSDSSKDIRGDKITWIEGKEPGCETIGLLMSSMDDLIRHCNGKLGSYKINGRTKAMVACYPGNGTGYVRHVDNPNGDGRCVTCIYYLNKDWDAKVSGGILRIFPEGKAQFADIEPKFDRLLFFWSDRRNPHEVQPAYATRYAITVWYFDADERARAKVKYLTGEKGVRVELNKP

| Compound | Enzyme pIC50 (human PHD2181-417) | EPO secretion, % of control compound (Hep-3B cells) [%] |
| --- | --- | --- |
| O=C(O)c1cnn(-c2nc3cc(Oc4ccc(Cl)cc4F)c(Cl)cc3[nH]2)c1 [Example 146, 1-[6-Chloro-5-(4-chloro-2-fluoro-phenoxy)-1H-benzoimidazol-2-yl]-1H-pyrazole-4-carboxylic Acid] | 7.2 | 49.9 |
| O=C(O)c1cnn(-c2nc3c(Br)cc(C(F)(F)F)cc3[nH]2)c1 [Example 35, 1-(4-Bromo-6-trifluoromethyl-1H-benzoimidazol-2-yl)-1H-pyrazole-4-carboxylic Acid] | 6.8 | 29.7 |
| CCSc1cc2[nH]c(-n3cc(C(=O)O)cn3)nc2cc1Cl [Example 76, 1-(5-Chloro-6-ethylsulfanyl-1H-benzoimidazol-2-yl)-1H-pyrazole-4-carboxylic Acid] | 6.9 | 212 |
| CCS(=O)(=O)c1cc2[nH]c(-n3cc(C(=O)O)cn3)nc2cc1Cl [Example 96, 1-(5-Chloro-6-ethanesulfonyl-1H-benzoimidazol-2-yl)-1H-pyrazole-4-carboxylic Acid] | 7.4 | 67 |
| COc1ccc(S(=O)(=O)c2cc3nc(-n4cc(C(=O)O)cn4)[nH]c3cc2C(F)(F)F)cc1 [Example 162, 1-[5-(4-Methoxy-benzenesulfonyl)-6-trifluoromethyl-1H-benzoimidazol-2-yl]-1H-pyrazole-4-carboxylic Acid] | 7.6 | 45.8 |
| O=C(O)c1cnn(-c2nc3c(Br)cc(Cl)cc3[nH]2)c1 [Example 37, 1-(4-Bromo-6-chloro-1H-benzoimidazol-2-yl)-1H-pyrazole-4-carboxylic Acid] | 6.6 | 34 |
| CCCS(=O)(=O)c1cc2[nH]c(-n3cc(C(=O)O)cn3)nc2cc1OC(F)(F)F [Example 106, 1-[6-(Propane-1-sulfonyl)-5-trifluoromethoxy-1H-benzoimidazol-2-yl]-1H-pyrazole-4-carboxylic Acid] | 7.5 | 124 |
| C[S+]([O-])c1cc2[nH]c(-n3cc(C(=O)O)cn3)nc2cc1C(F)(F)F (stereo not drawn) [Example 108, 1-(6-Methanesulfinyl-5-trifluoromethyl-1H-benzoimidazol-2-yl)-1H-pyrazole-4-carboxylic Acid] | 7.3 | 20.4 |

Continued, in another order:

| Enzyme pIC50 (human PHD2181-417) | Compound | EPO secretion, % of control compound (Hep-3B cells) [%] |
| --- | --- | --- |
| 6.3 | O=C(O)c1cnn(-c2nc3cc(NCCN4CCOCC4)c(Cl)cc3[nH]2)c1 [Example 134, 1-[6-Chloro-5-(2-morpholin-4-yl-ethylamino)-1H-benzoimidazol-2-yl]-1H-pyrazole-4-carboxylic Acid] | 56.5 |
| 6.7 | O=C(O)c1cnn(-c2nc3cc(N4CCCCC4)c(Cl)cc3[nH]2)c1 [Example 44, 1-(6-Chloro-5-piperidin-1-yl-1H-benzoimidazol-2-yl)-1H-pyrazole-4-carboxylic Acid] | 139 |
| 6.6 | CCS(=O)(=O)Nc1cc2nc(-n3cc(C(=O)O)cn3)[nH]c2cc1Cl [Example 137, 1-(6-Chloro-5-ethanesulfonylamino-1H-benzoimidazol-2-yl)-1H-pyrazole-4-carboxylic Acid] | 11 |
| 6.4 | O=C(CN1CCOCC1)Nc1cc2nc(-n3cc(C(=O)O)cn3)[nH]c2cc1Cl [Example 142, 1-[6-Chloro-5-(2-morpholin-4-yl-acetylamino)-1H-benzoimidazol-2-yl]-1H-pyrazole-4-carboxylic Acid] | 17 |
